Data as given in the supplement of paper PMC10307832.

Legend:
Experiment in all cases: relative viability (nuclei count vs DMSO), 5 days (fraction); higher = more cells survive
NCI-H1792 = tested on: NCI-H1792
How it was run: (§1)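 Lung cancer cell lines in 1536-well plates were dosed by pin tool the day after seeding, either with one drug alone or with a fixed anchor-drug dose plus five library-drug doses (not always all listed) in √10 steps. After 5 days, cells were fixed and their nuclei stained in one step (final 0.05% Triton X-100, 1% formaldehyde, 1 ug/ml Hoechst), then counted on 4× images. Relative viability is the nuclei count in treated wells divided by that in vehicle wells. Values are medians of duplicate plates.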

LC-2-ad = tested on: LC-2-ad
How it was run: as §1

NCI-H2085 = tested on: NCI-H2085
How it was run: as §1

LXF-289 = tested on: LXF-289
How it was run: as §1

NCI-H460 = tested on: NCI-H460
How it was run: as §1

NCI-H1944 = tested on: NCI-H1944
How it was run: as §1

HCC-78 = tested on: HCC-78
How it was run: as §1

LU99A = tested on: LU99A
How it was run: as §1

NCI-H1755 = tested on: NCI-H1755
How it was run: as §1

COR-L 105 = tested on: COR-L 105
How it was run: as §1

NCI-H1975 = tested on: NCI-H1975
How it was run: as §1

HCC-366 = tested on: HCC-366
How it was run: as §1

EPLC-272H = tested on: EPLC-272H
How it was run: as §1

A-427 = tested on: A-427
How it was run: as §1

NCI-H1915 = tested on: NCI-H1915
How it was run: as §1

HOP-62 = tested on: HOP-62
How it was run: as §1

LCLC-97TM1 = tested on: LCLC-97TM1
How it was run: as §1

SK-LU-1 = tested on: SK-LU-1
How it was run: as §1

NCI-H2170 = tested on: NCI-H2170
How it was run: as §1

NCI-H1793 = tested on: NCI-H1793
How it was run: as §1

UMC-11 = tested on: UMC-11
How it was run: as §1

For `O=C(O)c1ccc(-c2c[nH]c3ncc(-c4ccccc4)cc23)cc1C1CCCC1` + CC1(C)CCC(c2ccc(Cl)cc2)=C(CN2CCN(c3ccc(C(=O)NS(=O)(=O)c4ccc(N[C@H](CCN5CCOCC5)CSc5ccccc5)c(S(=O)(=O)C(F)(F)F)c4)cc3)CC2)C1 [Navitoclax] (partner 0.5 µM), the relative viability (NCI-H1792; first compound 0.04 µM) was 0.516, the relative viability (NCI-H1792; first compound 0.1265 µM) was 0.728 and the relative viability (NCI-H1792; first compound 0.4 µM) was 0.661. The relative viability (NCI-H1792; first compound 1.265 µM) was 0.588, the relative viability (LC-2-ad; first compound 0.04 µM) was 0.399 and the relative viability (LC-2-ad; first compound 0.1265 µM) was 0.5. The relative viability (LC-2-ad; first compound 0.4 µM) was 0.415, the relative viability (LC-2-ad; first compound 1.265 µM) was 0.173 and the relative viability (NCI-H2085; first compound 0.04 µM) was 1.06. For the same compound, the relative viability (NCI-H2085; first compound 0.1265 µM) was 1.1, the relative viability (NCI-H2085; first compound 0.4 µM) was 1.04 and the relative viability (NCI-H2085; first compound 1.265 µM) was 0.72. For the same compound, the relative viability (LXF-289; first compound 0.04 µM) was 0.936, the relative viability (LXF-289; first compound 0.1265 µM) was 0.883 and the relative viability (LXF-289; first compound 0.4 µM) was 0.658. For the same compound, the relative viability (LXF-289; first compound 1.265 µM) was 0.48, the relative viability (NCI-H460; first compound 0.04 µM) was 1.08 and the relative viability (NCI-H460; first compound 0.1265 µM) was 1.18. It also gave a relative viability (NCI-H460; first compound 0.4 µM) of 1.14, a relative viability (NCI-H460; first compound 1.265 µM) of 0.962 and a relative viability (NCI-H1944; first compound 0.04 µM) of 1.01. The relative viability (NCI-H1944; first compound 0.1265 µM) was 1.03, the relative viability (NCI-H1944; first compound 0.4 µM) was 1.07 and the relative viability (NCI-H1944; first compound 1.265 µM) was 0.932. It also gave a relative viability (HCC-78; first compound 0.04 µM) of 0.849, a relative viability (HCC-78; first compound 0.1265 µM) of 0.904 and a relative viability (HCC-78; first compound 0.4 µM) of 0.802. For the same compound, the relative viability (HCC-78; first compound 1.265 µM) was 0.542, the relative viability (LU99A; first compound 0.04 µM) was 0.818 and the relative viability (LU99A; first compound 0.1265 µM) was 0.987. The relative viability (LU99A; first compound 0.4 µM) was 0.735, the relative viability (LU99A; first compound 1.265 µM) was 0.721 and the relative viability (NCI-H1755; first compound 0.04 µM) was 0.98. The relative viability (NCI-H1755; first compound 0.1265 µM) was 1.05, the relative viability (NCI-H1755; first compound 0.4 µM) was 1.03 and the relative viability (NCI-H1755; first compound 1.265 µM) was 0.927. It also gave a relative viability (COR-L 105; first compound 0.04 µM) of 0.818, a relative viability (COR-L 105; first compound 0.1265 µM) of 0.95 and a relative viability (COR-L 105; first compound 0.4 µM) of 0.733. For the same compound, the relative viability (COR-L 105; first compound 1.265 µM) was 0.717, the relative viability (NCI-H1975; first compound 0.04 µM) was 1.13 and the relative viability (NCI-H1975; first compound 0.1265 µM) was 1.25. For the same compound, the relative viability (NCI-H1975; first compound 0.4 µM) was 1.1, the relative viability (NCI-H1975; first compound 1.265 µM) was 1.17 and the relative viability (HCC-366; first compound 0.04 µM) was 0.993. It also gave a relative viability (HCC-366; first compound 0.1265 µM) of 1.2, a relative viability (HCC-366; first compound 0.4 µM) of 0.964 and a relative viability (HCC-366; first compound 1.265 µM) of 1.14. The relative viability (EPLC-272H; first compound 0.04 µM) was 1.01, the relative viability (EPLC-272H; first compound 0.1265 µM) was 1.16 and the relative viability (EPLC-272H; first compound 0.4 µM) was 1.06. The relative viability (EPLC-272H; first compound 1.265 µM) was 0.811, the relative viability (A-427; first compound 0.04 µM) was 1.02 and the relative viability (A-427; first compound 0.1265 µM) was 0.936. It also gave a relative viability (A-427; first compound 0.4 µM) of 0.868, a relative viability (A-427; first compound 1.265 µM) of 0.708 and a relative viability (NCI-H1915; first compound 0.04 µM) of 0.769. The relative viability (NCI-H1915; first compound 0.1265 µM) was 0.77, the relative viability (NCI-H1915; first compound 0.4 µM) was 0.609 and the relative viability (NCI-H1915; first compound 1.265 µM) was 0.502. The relative viability (HOP-62; first compound 0.04 µM) was 1.05, the relative viability (HOP-62; first compound 0.1265 µM) was 1.13 and the relative viability (HOP-62; first compound 0.4 µM) was 1.05. For the same compound, the relative viability (HOP-62; first compound 1.265 µM) was 0.76, the relative viability (LCLC-97TM1; first compound 0.04 µM) was 0.463 and the relative viability (LCLC-97TM1; first compound 0.1265 µM) was 0.303. It also gave a relative viability (LCLC-97TM1; first compound 0.4 µM) of 0.503, a relative viability (LCLC-97TM1; first compound 1.265 µM) of 0.396 and a relative viability (SK-LU-1; first compound 0.04 µM) of 0.982. It also gave a relative viability (SK-LU-1; first compound 0.1265 µM) of 1.01, a relative viability (SK-LU-1; first compound 0.4 µM) of 0.697 and a relative viability (SK-LU-1; first compound 1.265 µM) of 0.482. It also gave a relative viability (NCI-H2170; first compound 0.04 µM) of 0.605, a relative viability (NCI-H2170; first compound 0.1265 µM) of 0.64 and a relative viability (NCI-H2170; first compound 0.4 µM) of 0.483. For the same compound, the relative viability (NCI-H2170; first compound 1.265 µM) was 0.503, the relative viability (NCI-H1793; first compound 0.04 µM) was 0.538 and the relative viability (NCI-H1793; first compound 0.1265 µM) was 0.383. For the same compound, the relative viability (NCI-H1793; first compound 0.4 µM) was 0.494, the relative viability (NCI-H1793; first compound 1.265 µM) was 0.286 and the relative viability (UMC-11; first compound 0.04 µM) was 0.318. The relative viability (UMC-11; first compound 0.1265 µM) was 0.299, the relative viability (UMC-11; first compound 0.4 µM) was 0.328 and the relative viability (UMC-11; first compound 1.265 µM) was 0.222.
